Two compounds from patent US20230172894A1, “COMBINATION TREATMENT FOR FUMARATE-RELATED DISEASES” (IMCYSE SA, priority 2020, published 2023) can be followed below.

Counter-ions that a name gives are not always drawn.

In data set [1] the test system is experimental auto-immune encephalomyelitis (EAE) development in mice. Conditions: Example 3; for mice died in group: 16 mice per group. An excerpt: Example 3: Effect of the therapeutic administration of an immunogenic peptide comprising a MOG35-55 MHCII T cell epitope linked to a KCRC (SEQ ID NO: 65) or KCRPYC (SEQ ID NO: 84) oxidoreductase motif in combination with dimethyl fumarate (BG-12, […]™) on experimental auto-immune encephalomyelitis (EAE) development in mice.
The study used a total of 128 female C57BL/6 mice (Taconic Biosciences, 9 weeks old on Day 0). Mice were acclimated for 7 days prior to the first injection. Mice were assigned to groups in a balanced manner to achieve similar average weight across the groups at the start of the study.
Treatment 1 was administered once on each of the days indicated in Table 4, s.c., at a volume of 0.05 mL/site, each mouse receiving injection at two sites, for a total of 0.1 mL/mouse/dosing day. IMCY-0189 (CXXC oxidoreductase motif, IMCY-0453 (CXC oxidoreductase motif) or IMCY-0455 (CXXXC oxidoreductase motif) peptide total dose was 30 μg per administration.
BG-12 was dosed at 100 mg/kg.
All dosing were done at the same time (+/−1 hour) each dosing day. For the BID groups there were no less than 10 and no more than 14 hours between doses.
(SEQ ID NO: 266), comprising an oxidoreductase motif KCRC (SEQ ID NO: 65), a linker GW, a murine Myelin Oligodendrocyte Glycoprotein (MOG35-55) MHCII T cell epitope […] (SEQ ID NO: 169) and a flanking sequence HLYR (SEQ ID NO: 186) (Smart Bioscience) was solubilized immediately before use. Lyophilized IMCY-0453 was thawed at room temperature for 10 minutes, resuspended in Na Acetate buffer 50 mM NaCl 0.9% pH 5.4 and incubated at room temperature for 10 minutes. Reconstituted peptide was then mixed with Imject™ Alum Adjuvant before injection.
(SEQ ID NO: 268), comprising an oxidoreductase motif KCRPYC (SEQ ID NO: 84), a linker GW, a murine Myelin Oligodendrocyte Glycoprotein (MOG35-55) MHCII T cell epitope […] (SEQ ID NO: 169) and a flanking sequence HLYR (SEQ ID NO: 186) (Smart Bioscience) was solubilized immediately before use. Lyophilized IMCY-0455 was thawed at room temperature for 10 minutes, resuspended in Na Acetate buffer 50 mM NaCl 0.9% pH 5.4 and incubated at room temperature for 10 minutes. Reconstituted peptide was then mixed with Imject™ Alum Adjuvant before injection.
Treatment 2 was prepared as described in example 2.
EAE induction, scoring and statistical analysis were performed as described in example
EAE development was evaluated by comparing clinical EAE readouts for all groups to the negative control (Saline/Vehicle) group.

Data set [2] shares this test system. Kind of data set: Example 1 (repeated experiment): plasma neurofilament light (NF-L) levels in EAE mice, Simoa NF-light assay. In kind it is in vivo, female C57BL/6 mice. Conditions: Example 1 regimen repeated; Day 28 plasma; vs negative control. The protocol: On Day 28, blood was collected from all mice into tubes containing K2EDTA and mixed gently. Blood was then centrifuged at ˜10000 g for 5 minutes. Plasma was transferred into Eppendorf tubes and stored at −80° C. until shipment to Quanterix™. Plasma Neurofilament light (NF-L) protein levels were quantified using Simoa® NF-light Advantage kit, a digital immunoassay for the quantitative determination of NF-L in serum, plasma and CSF. The used antibodies (Uman Diagnostics, Umea Sweden) also cross react with murine, bovine and macaque NF-L epitopes and as such, this assay can be used for research with these species. All samples were tested in duplicate at a dilution factor of 40×.
Neurofilament light (NF-L) is a 68 kDa cytoskeletal filament protein that is expressed in neurons, as one of the major components of the neuronal cytoskeleton that provide structural support for the axon. Neurofilaments can be released following axonal damage or neuronal degeneration.

Take `COC(=O)/C=C/C(=O)OC` [BG-12, dimethyl fumarate, reference compound]: in data set [1], the “mice died in group” value is “No mice died”. The disease onset result in data set [1] (peptide 30 μg/Alum s.c. days 4, 9, 14, 19, BG-12 100 mg/kg p.o. BID days 0 to 27, vs negative control) is “postponed disease onset”. Besides, in data set [1] (vs negative control), the “AUC (area under the curve) of EAE scores” value is given as “statistically significant reduced”, the “MMS (mean maximal score)” value was “statistically significant reduced” and the “end score (clinical EAE score 0-5)” value is “reduced end score”.

Regarding HCPYCGWYRSPFSRVVHLYR [IMCY-0189], the “plasma NF-L levels” value in data set [2] was “reduced NF-L levels”. Also, the “mice died in group” value in data set [1] is “No mice died”.
